From publication PMC11928319 (Nature Plants, 2025)
“And” between values parts separate entries of the source, which are not always exact repeats. Equal entries are not always repeated.

System: EFR
Assay: Expression of EFR normalized to UBQ5 in roots (RT–qPCR) and pEFR::NLS–3*mVenus reporter
Assay type: in vivo, Arabidopsis thaliana
Details: timepoint 1h, single samples
Procedure: Axenic 14-day-old seedlings (see ‘Agar-based cultivation of axenic plants and co-cultivation with bacteria, bacterial supernatants and elicitors’) were submerged in 12 ml of 10 mM MgSO4 supplemented with 1 µM elicitor or bacteria, which were directly harvested from 0.5× TSB plates and resuspended in 10 mM MgSO4. Bacterial concentration was adjusted to OD600 = 1.5, if not indicated differently. For a heat-killed bacterial inoculum, resuspended bacteria were incubated in boiling water for 30 min. […] For co-exposure to flg22 and AtPep1, seedlings were submerged as described for 1 h, residual liquid was removed and the plants were incubated in a cultivation chamber for 4 h prior to harvesting.
For reverse transcription quantitative PCR (RT–qPCR), roots of eight to ten plants grown on one square plate were pooled for one sample. Frozen roots were homogenized using a TissueLyser II (QIAGEN, 2 × 29 pps for 40 s) with pre-cooled adaptors. RNA was extracted using the Plant RNA Kit (my-Budget) according to the user manual and eluted in 35 µl of elution buffer. RNA concentrations were measured using a spectrometer (Nanodrop OneC Microvolume UV-Vis Spectrophotometer). Complementary DNA was synthesized from 300–500 ng of RNA using the RevertAid H Minus First Strand cDNA Synthesis Kit (ThermoScientific) in a 20-µl reaction according to the user manual. In brief, 1 µl of oligo(dT)18 primer was mixed with RNA in a final volume of 12 µl and incubated at 65 °C for 5 min. Afterwards, 4 µl of 5× Reaction buffer, 2 µl of 10 mM dNTPs, 1 µl of RiboLock RNase Inhibitor (20 U µl^−1) and 1 µl of RevertAid H Minus M-MuLV Reverse Transcriptase (200 U µl^−1) were added, and the reaction was incubated at 42 °C for 60 min followed by heat inactivation at 70 °C for 5 min. cDNA was diluted 1:10 prior to qPCR using the iQ SYBR Green Supermix (Bio-Rad). […]

Ac-SKEKFERTKPHVNVGTIG [elf18]
EFR fold_change (Replicate I): 1.977 and 2.517 and 1.4157 and 1.558 | EFR fold_change (Replicate II): 1.051 and 1.166 and 0.9721 and 1.1066 | EFR fold_change (Replicate III): 1.492 and 1.557 and 2.228 and 1.3126
